Measurements: US12428369B2, “Crystal form of aromatic vinyl derivatives, and preparation method therefor and use thereof” (GUANGZHOU MAXINOVEL PHARMACEUTICALS CO., LTD., priority 2020, dated 2025)
Converted amounts (≈) assume the structure as drawn.

Legend:
Type in all cases: physicochemical
[1] = Equilibrium solubility and dissolution rate in water, SGF, FaSSIF, FeSSIF; conditions: 37° C.
Experimental: To further study whether the equilibrium solubility and dissolution rate of crystal forms A, B and C are different in pure water and physiological related media in vivo, the equilibrium solubility and dissolution rate of […] crystal forms in water, simulated gastric fluid (SGF), fasted-state simulated intestinal fluid (FaSSIF) and fed state simulated intestinal fluid (FeSSIF) were tested respectively.

[2] = Dynamic vapor sorption (DVS) analysis; conditions: 25° C.
Experimental: (§1) The hygroscopic characteristics of the sample were tested when the humidity changed from 0% RH to 95% RH, and the dehumidifying characteristics of the sample were tested when the humidity changed from 95% RH to 0% RH. The humidity change in each step size was 5% RH, the equilibrium standard was that the weight change rate within 10 min was less than 0.01%/min, and the longest equilibrium time was 2 hours.
as §1, with “5” for “10”

[3] = Solid-state stability: appearance and crystal form (XRPD)
Experimental: (§2) The samples of crystal forms A, B, and C were weighed and added to a 20 mL colorless transparent glass bottle, respectively, and the sample bottles were respectively placed under the corresponding influencing factors and acceleration conditions (the sample bottles under humidity conditions were sealed with tin foil and placed with holes, and the other samples were covered tightly and placed), taken out after being placed for 1 week and 2 weeks respectively, and the sample content and related substances under various conditions were detected by HPLC; according to the same method as above, samples were respectively weighed and placed under a corresponding influencing factor and accelerated condition, and were taken out after being placed for 2 weeks for observing the appearance and XRPD characterization of each sample, and the physical stability of each crystal form was examined, and the test methods are detailed in table 14 and table 15; at the same time, 2 samples of the crystal forms A, B, and C of the compound as shown in formula I were respectively weighed accurately into 20 mL colorless transparent glass bottles and covered tightly, placed in a −20° C. refrigerator, and taken out as a standard for HPLC analysis at 2 weeks, and the test results are detailed in table 16 and table 17.

[4] = Crystal form conversion on heating; conditions: heated to 200° C.
Experimental: 100 mg of the compound as shown in formula I sample was weighed and added to a bottle, then 20 times the volume of methanol was added to the bottle, and the mixture was magnetic stirred and slurried for 14 days at room temperature.
100 mg of the compound as shown in formula I sample was weighed and added to a glass bottle, and 100 times the volume of ethyl acetate (EA) and 20 times the volume of methanol (MeOH) were added to the bottle, and the sample was placed on a magnetic heating stirrer. The mixture was magnetic stirred to fully dissolve at a water bath of 50° C., filtered and the filtrate was slowly cooled to room temperature at a rate of 6° C./h, overnight, filtered under reduced pressure, and the solid was dried at 70° C. for 4 hours.
100 mg of the compound as shown in formula I sample was weighed and added to a bottle, then 30 times the volume of acetonitrile (ACN) (sample mass (g)×volume multiples) was added to the bottle, and the mixture was magnetic stirred and slurried for 2 days at room temperature, filtered under reduced pressure, and the solid was collected, and dried at 40° C. for 4 hours. The solid after drying was characterized, and the crystal form was defined as a crystal form VIII, and the XRPD pattern of the crystal form VIII is as shown in FIG. 20. […]

[5] = Solid-state stability: content and related substances by HPLC
Experimental: as §2

[6] = Acceleration (40° C./75% RH), 2 weeks
[7] = High humidity (92.5% RH), 2 weeks
[8] = High temperature (60° C.), 2 weeks
[9] = Illumination (4500 Lux), 2 weeks
[10] = Acceleration (40° C./75% RH), 1 week
[11] = High humidity (92.5% RH), 1 week
[12] = High temperature (60° C.), 1 week
[13] = illumination (4500 LuX), 1 week
[14] = illumination (4500 LuX), 2 weeks

Solubility ([1]; FaSSIF (rows r12-r14), 0.5 hours, listed as C): 9.1 µg/mL (≈ 19.4 µM)
Solubility ([1]; FaSSIF (rows r12-r14), 2 hours, listed as C): 2.2 µg/mL (≈ 4.69 µM)
Solubility ([1]; FaSSIF (rows r12-r14), 24 hours, listed as C): 4.5 µg/mL (≈ 9.58 µM)
Solubility ([1]; FaSSIF as printed (second set, rows r15-r17), 0.5 hours, listed as C): 181.7 µg/mL (≈ 387 µM)
Solubility ([1]; FaSSIF as printed (second set, rows r15-r17), 2 hours, listed as C): 174.3 µg/mL (≈ 371 µM)
Solubility ([1]; FaSSIF as printed (second set, rows r15-r17), 24 hours, listed as C): 166.6 µg/mL (≈ 355 µM)
Solubility ([1]; SGF, 0.5 hours): 0.3 µg/mL (≈ 0.639 µM)
Solubility ([1]; SGF, 2 hours): 0.2 µg/mL (≈ 0.426 µM)
Solubility ([1]; SGF, 24 hours): 0.5 µg/mL (≈ 1.06 µM)
Solubility ([1]; Water, 0.5 hours): 1.7 µg/mL (≈ 3.62 µM)
Solubility ([1]; Water, 2 hours): 6.5 µg/mL (≈ 13.8 µM)
Solubility ([1]; Water, 24 hours): 1.8 µg/mL (≈ 3.83 µM)
hygroscopicity ([2]; assessment in words): hygroscopic
weight gain ([2]; from 0% RH to 95% RH): 4.767%
Appearance [3, 6]: Off-white
Crystal form (XRPD) after storage [3, 6]: Crystal form C
Appearance ([3]; Control, −20° C., 2 weeks): Off-white
Crystal form (XRPD) after storage ([3]; Control, −20° C., 2 weeks, listed as Crystal form C-Control): Crystal form C
Appearance [3, 7]: Off-white
Crystal form (XRPD) after storage [3, 7]: Crystal form C
Appearance [3, 8]: Off-white
Crystal form (XRPD) after storage [3, 8]: Crystal form C
Appearance [3, 9]: Off-white
Crystal form (XRPD) after storage [3, 9]: Crystal form C
physical stability ([3]; four storage conditions, 2 weeks (conclusion)): good
Appearance ([3]; high temperature, high humidity, illumination and acceleration, 2 weeks (conclusion)): off-white
crystal form after heating [4]: converted into the crystal form A
Content [5, 10]: 100.06%
Total related substances [5, 10]: 0.00%
Content [5, 6]: 99.89%
Total related substances [5, 6]: 0.00%
Content ([5]; Control, −20° C., 2 weeks): 100.00%
Total related substances ([5]; Control, −20° C., 2 weeks): 0.00%
Content [5, 11]: 101.55%
Total related substances [5, 11]: 0.00%
Content [5, 7]: 100.59%
Total related substances [5, 7]: 0.00%
Content [5, 12]: 98.41%
Total related substances [5, 12]: 0.00%
Content [5, 8]: 100.18%
Total related substances [5, 8]: 0.00%
Content [5, 13]: 102.18%
Total related substances [5, 13]: 0.52%
Content [5, 14]: 98.64%
Total related substances [5, 14]: 1.56%
SMILES: Cc1c(/C=C/c2cc(CN[C@@](C)(CO)C(=O)O)ccc2C(F)(F)F)cccc1-c1ccccc1 [Crystal form C]
